Results as given in patent US12617814B2, “Neuroactive steroids and methods of use thereof” (Sage Therapeutics, LLC, priority 2013, dated 2026).

Tests used:
[1] = target: NMDA (NR1a/NR2A) (Homo sapiens, UniProt Q05586+Q12879); conditions: cited from earlier work
[2] = target: T1, NMDA receptor (GRIN1/GRIN2A subunits) (Homo sapiens, UniProt Q05586+Q12879); test: NMDA potentiation, whole-cell patch clamp of HEK cells expressing NMDA receptor; format: cell-based; conditions: for activation at 0.1 µM: HEK293, 0.1 uM compound, read-out: NMDA 1a2A (%) Potentiation 0.1 uM; for activation at 0.1 µM / activation at 1 µM / NMDA 1a2A (%) Potentiation 0.1 uM / NMDA 1a2A (%) Potentiation 1 uM: HEK cells, 30 μM NMDA and 5.0 μM Glycine; for activation at 1 µM: HEK293, 1 uM compound, read-out: NMDA 1a2A (%) Potentiation 1 uM; for NMDA 1a2A (%) Potentiation 0.1 uM: 0.1 uM compound; for NMDA 1a2A (%) Potentiation 1 uM: 1 uM compound
T1 construct: expressed in transfected cells
T1 sequence (Q12879 23-1464, other chains not shown): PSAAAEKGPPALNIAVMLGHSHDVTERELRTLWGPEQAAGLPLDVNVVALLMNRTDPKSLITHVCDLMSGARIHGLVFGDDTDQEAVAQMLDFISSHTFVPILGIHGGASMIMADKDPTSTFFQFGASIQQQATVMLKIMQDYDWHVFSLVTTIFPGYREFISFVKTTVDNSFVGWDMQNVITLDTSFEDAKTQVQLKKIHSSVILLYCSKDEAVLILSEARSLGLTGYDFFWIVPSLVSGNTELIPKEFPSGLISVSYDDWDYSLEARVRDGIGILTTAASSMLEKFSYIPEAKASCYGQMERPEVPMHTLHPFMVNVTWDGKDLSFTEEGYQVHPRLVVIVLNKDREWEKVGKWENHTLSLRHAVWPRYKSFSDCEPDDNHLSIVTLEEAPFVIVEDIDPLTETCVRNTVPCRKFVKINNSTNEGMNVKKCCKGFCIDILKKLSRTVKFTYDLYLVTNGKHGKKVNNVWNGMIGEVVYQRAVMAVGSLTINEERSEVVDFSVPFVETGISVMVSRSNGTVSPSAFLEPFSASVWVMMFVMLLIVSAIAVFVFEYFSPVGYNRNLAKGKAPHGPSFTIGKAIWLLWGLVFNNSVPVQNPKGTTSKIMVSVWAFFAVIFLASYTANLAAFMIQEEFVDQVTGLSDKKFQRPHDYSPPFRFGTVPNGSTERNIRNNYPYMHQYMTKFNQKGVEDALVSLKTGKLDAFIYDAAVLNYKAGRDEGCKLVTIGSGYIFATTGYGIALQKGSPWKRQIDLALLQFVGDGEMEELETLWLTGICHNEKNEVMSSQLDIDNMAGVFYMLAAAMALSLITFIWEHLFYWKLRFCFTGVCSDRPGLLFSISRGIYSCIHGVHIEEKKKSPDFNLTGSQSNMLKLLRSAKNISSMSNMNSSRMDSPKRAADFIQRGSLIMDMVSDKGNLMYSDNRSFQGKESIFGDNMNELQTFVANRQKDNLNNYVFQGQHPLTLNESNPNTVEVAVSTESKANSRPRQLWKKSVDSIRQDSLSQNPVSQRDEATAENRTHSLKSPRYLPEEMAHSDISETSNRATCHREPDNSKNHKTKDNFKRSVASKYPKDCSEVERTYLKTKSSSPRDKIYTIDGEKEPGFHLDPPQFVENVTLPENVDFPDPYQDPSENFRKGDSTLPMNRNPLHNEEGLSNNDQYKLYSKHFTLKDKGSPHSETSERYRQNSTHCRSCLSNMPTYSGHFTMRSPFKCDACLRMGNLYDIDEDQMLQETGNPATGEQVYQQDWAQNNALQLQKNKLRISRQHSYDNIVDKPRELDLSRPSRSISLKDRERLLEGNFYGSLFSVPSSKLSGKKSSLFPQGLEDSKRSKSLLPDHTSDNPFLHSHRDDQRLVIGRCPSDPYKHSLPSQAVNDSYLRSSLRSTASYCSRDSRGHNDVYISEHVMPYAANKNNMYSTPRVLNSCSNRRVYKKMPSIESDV
Method: NMDA potentiation was assessed using either whole cell patch clamp of mammalian cells which expressed NMDA receptors, or using two-electrode voltage clamp (TEVC) of Xenopus Laevis oocytes expressing NMDA receptors.
NMDA/Glycine peak and steady-state currents were recorded from stably transfected cells expressing the NMDA receptor and the modulatory effects of the test items on these currents were investigated.
Cells were stably transfected with human GRIN1 (variant NR1-3). These cells were transiently transfected (Lipofectamine™) with GRIN2A cDNA and CD8 (pLeu) antigene cDNA. About 24-72 hours following transfection 1 μl Dynabeads M-45 CD8 was added to identify successfully transfected cells (Jurman et al., Biotechniques (1994) 17:876-881). Cells were passaged to a confluence of 50-80%. Cells were seeded onto Poly-L-Lysine coated cover slips covered with culture complete medium in a 35 mm culture dish. Confluent clusters of cells are electrically coupled (Pritchett et al., Science (1988), 242:1306-8). Because responses in distant cells are not adequately voltage clamped and because of uncertainties about the extent of coupling (Verdoorn et al., Neuron (1990), 4:919-28), cells were cultivated at a density that enables single cells (without visible connections to neighboring cells) to be measured. Cells were incubated at 37° C. in a humidified atmosphere with 5% CO2 (rel. humidity about 95%). The cells were continuously maintained in and passaged in sterile culture flasks containing a 1:1 mixture of Dulbecco's modified eagle medium and nutrient mixture F-12 (D-MEM/F-12 1×, liquid, with L-Glutamine) supplemented with 9% fetal bovine serum and 0.9% Penicillin/Streptomycin solution. The complete medium was supplemented with 3.0 μg/ml Puromycin.
Whole cell currents were measured with HEKA EPC-10 amplifiers using PatchMaster software. Cell culture dishes for recordings were placed on the dish holder of the microscope and continuously perfused (1 ml/min) with “bath solution” (NaCl 137 mM, KCl 4 mM, CaCl2 1.8 mM, MgCl2 1 mM, HEPES 10 mM, D-Glucose 10 mM, pH (NaOH) 7.4). All solutions applied to cells including the pipette solution were maintained at room temperature (19° C.-30° C.). After formation of a Gigaohm seal between the patch electrodes and transfected individual HEK 293 cells (pipette resistance range: 2.5 MΩ-6.0 MΩ; seal resistance range: >1 GQ) the cell membrane across the pipette tip was ruptured to assure electrical access to the cell interior (whole-cell patch-configuration). At this point the bath solution is switched to “NMDA bath solution” (NaCl 137 mM, KCl 4 mM, CaCl2 2.8 mM, HEPES 10 mM, D-Glucose 10 mM, Cremophore 0.02%, pH (NaOH) 7.4). NMDA inward currents were measured upon application of 30 μM NMDA (and 5.0 μM Glycine) to patch-clamped cells (2 applications) for 5 s. The cells were voltage clamped at a holding potential of −80 mV. For the analysis of test articles, NMDA receptors were stimulated by 30 μM NMDA and 5.0 μM Glycine after sequential pre-incubation of increasing concentrations of the test article. Pre-incubation duration was 30 s. Stimulation duration was 5 s Test articles were dissolved in DMSO to form stock solutions of 0.1 mM and 1 mM. Test articles were diluted to 0.1 μM and 1 μM in “NMDA bath solution”. Both concentrations of test articles were tested on each cell. The same concentration was applied at least three times or until the steady state current amplitude was reached. Every day one cell was tested with 50 μM PREGS (positive control) using the same application protocol to test whether cells were successfully transfected with NMDA receptors.

NMDA (NR1a/NR2A), sequence (Q12879 23-1464, other chains not shown): as above

In the case of `C[C@H](CCC(C)(C)O)[C@H]1CC[C@H]2[C@@H]3CC=C4C[C@@H](O)CC[C@]4(C)[C@H]3CC[C@]12C` (stereo in doubt) [Org-1, reference compound], the “modulation of NMDA (NR1a/NR2A)” value [1] is listed as “positive modulator”, the “selectivity NMDA over GABAA” value [1] is listed as “selectively modulate NMDA over GABAA” and the activation at 0.1 µM [2] is listed as 10 to 75%. It also gave an activation at 1 µM [2] of 150 to 250%.

For `CC(CCC(C)(C)O)[C@H]1CC[C@H]2[C@@H]3CC[C@H]4C[C@@](C)(O)CC[C@]4(C)[C@H]3CC[C@]12C` (stereo partly shown) [Comparison compound 3, reference compound], the activation at 0.1 µM [2] was 75 to 150% and the activation at 1 µM [2] was 150 to 250%.

In the case of `CC(C)(O)CCC[C@H]1CC[C@H]2[C@@H]3CC[C@H]4C[C@@](C)(O)CC[C@]4(C)[C@H]3CC[C@]12C` [Comparison compound 4, reference compound], the activation at 0.1 µM [2] is reported as 10 to 75%, the activation at 1 µM [2] is reported as 75 to 150% and the “loss of NMDA potentiation compared to Comparison Compound 3” value ([2]; measured at 0.1 μM concentration) is reported as “five fold”.

In the case of `CCC(C)(O)CC[C@@H](C)[C@H]1CC[C@H]2[C@@H]3CC[C@H]4C[C@@](C)(O)CC[C@]4(C)[C@H]3CC[C@]12C` (stereo partly shown) [Comparison compound 5, reference compound], the “NMDA 1a2A (%) Potentiation 0.1 uM” value [2] is reported as “A (“A” indicates 10-75% potentiation)” and the “NMDA 1a2A (%) Potentiation 1 uM” value [2] is reported as “A (“A” indicates 10-75% potentiation)”.

Work on `C[C@H](CCC(O)C(F)(F)F)[C@H]1CC[C@H]2[C@@H]3CC=C4C[C@@](C)(O)CC[C@]4(C)[C@H]3CC[C@]12C` (stereo partly shown) [Compound 1-11] yielded an activation at 0.1 µM [2] of 150 to 250% and an activation at 1 µM [2] of 150 to 250%.

With `C[C@H](CCC(O)C(F)(F)F)[C@H]1CC[C@H]2[C@@H]3CC[C@H]4C[C@@](C)(O)CC[C@]4(C)[C@H]3CC[C@]12C` (stereo partly shown) [Compound 1-12] the activation at 0.1 µM [2] was 10 to 75% and the activation at 1 µM [2] was 75 to 150%.

For `C[C@H](CC[C@H](O)C(F)(F)F)[C@H]1CC[C@H]2[C@@H]3CC=C4C[C@@](C)(O)CC[C@]4(C)[C@H]3CC[C@]12C` [Compound 1-15], the activation at 0.1 µM [2] was 75 to 150% and the activation at 1 µM [2] was 150 to 250%.

`C[C@H](CC[C@@H](O)C(F)(F)F)[C@H]1CC[C@H]2[C@@H]3CC=C4C[C@@](C)(O)CC[C@]4(C)[C@H]3CC[C@]12C` [Compound 1-17] gave an activation at 0.1 µM [2] of 150 to 250% and an activation at 1 µM [2] of 150 to 250%.

With `CCC(C)(O)CC[C@@H](C)[C@H]1CC[C@H]2[C@@H]3CC=C4C[C@@](C)(O)CC[C@]4(C)[C@H]3CC[C@]12C` (stereo partly shown) [Compound 4-6] the activation at 0.1 µM [2] was 150 to 250% and the activation at 1 µM [2] was 150 to 250%.

In the case of `CCC(C)(O)CC[C@@H](C)[C@H]1CC[C@H]2[C@@H]3CC[C@H]4C[C@@](C)(O)CC[C@]4(C)[C@H]3CC[C@]12C` (stereo partly shown) [Compound 4-7], the “NMDA 1a2A (%) Potentiation 0.1 uM” value [2] is reported as “B (“B” indicates potentiation of >75% to 150%)” and the “NMDA 1a2A (%) Potentiation 1 uM” value [2] is reported as “C (“C” indicates potentiation of >150 to 250%)”.

Work on `CCCC(C)(O)CC[C@@H](C)[C@H]1CC[C@H]2[C@@H]3CC=C4C[C@@](C)(O)CC[C@]4(C)[C@H]3CC[C@]12C` (stereo partly shown) [Compound 5-2] yielded an activation at 0.1 µM [2] of 75 to 150% and an activation at 1 µM [2] of 150 to 250%.

In the case of `CCCC(C)(O)CC[C@@H](C)[C@H]1CC[C@H]2[C@@H]3CC[C@H]4C[C@@](C)(O)CC[C@]4(C)[C@H]3CC[C@]12C` (stereo partly shown) [Compound 5-3], the activation at 0.1 µM [2] is reported as 10 to 75% and the activation at 1 µM [2] is reported as 75 to 150%.

`C=CCC(C)(O)CC[C@@H](C)[C@H]1CC[C@H]2[C@@H]3CC=C4C[C@@](C)(O)CC[C@]4(C)[C@H]3CC[C@]12C` (stereo partly shown) [Compound 6-2] gave an activation at 0.1 µM [2] of 75 to 150% and an activation at 1 µM [2] of 150 to 250%.

`CCCCC(C)(O)CC[C@@H](C)[C@H]1CC[C@H]2[C@@H]3CC=C4C[C@@](C)(O)CC[C@]4(C)[C@H]3CC[C@]12C` (stereo partly shown) [Compound 7-2] gave an activation at 0.1 µM [2] of 10 to 75% and an activation at 1 µM [2] of 75 to 150%.

For `CC(C)C(C)(O)CC[C@@H](C)[C@H]1CC[C@H]2[C@@H]3CC=C4C[C@@](C)(O)CC[C@]4(C)[C@H]3CC[C@]12C` (stereo partly shown) [Compound 8-2], the activation at 0.1 µM [2] was 75 to 150% and the activation at 1 µM [2] was 150 to 250%.

In the case of `CC(C)C(C)(O)CC[C@@H](C)[C@H]1CC[C@H]2[C@@H]3CC[C@H]4C[C@@](C)(O)CC[C@]4(C)[C@H]3CC[C@]12C` (stereo partly shown) [Compound 8-3], the activation at 0.1 µM [2] is reported as 75 to 150% and the activation at 1 µM [2] is reported as greater than 250%.

For `C[C@H](CCC(C)(O)C1CC1)[C@H]1CC[C@H]2[C@@H]3CC=C4C[C@@](C)(O)CC[C@]4(C)[C@H]3CC[C@]12C` (stereo partly shown) [Compound 9-2], the activation at 0.1 µM [2] was 150 to 250% and the activation at 1 µM [2] was 150 to 250%.
